This note sets out measurements from a melting point compilation (Tetko et al.; mined from patent text by program, amines drawn as free bases though some values may be those of a salt).

`Nc1ncc(CN2CCN(c3cccc(Cl)c3)CC2)c(N)n1`: the melting point (usually the temperature, or range, at which the solid turns liquid) was 222 to 226 °C. With `OCc1c(CO)c(-c2ccccc2)n2c1Cc1ccccc1-2` the figure was 169 to 171 °C; with `O=C(Nc1cc(F)c(Cl)nc1C1CCN(CC=Cc2ccc(Cl)cc2)CC1)c1ccnc(Cl)c1`, 71 to 73 °C; with `O=C(O)c1cn(-c2cc(O)c(F)cc2[N+](=O)[O-])c2c(Cl)c(F)c(F)cc2c1=O`, 248 to 255 °C. With `Cc1oc(=O)oc1Cn1nnc(-c2ccnc(-c3nnn(Cc4oc(=O)oc4C)n3)c2)n1` the figure was 150 to 152 °C; with `Cc1ccnc(N2CCN(CCc3c(-c4ccc(O)cc4)n4c5c(cccc35)CCC4)CC2)c1`, 220 °C. As to `CCOC(=O)c1c(CCl)nc2cc3c(cc2c1-c1ccc(OC)c(OC)c1)OCCO3`, the melting point was in the range of 197 to 198 °C. Compound `COc1cc2ncnc(N3CCC(NCc4ccccn4)CC3)c2cc1OC` showed a melting point of 151 to 155 °C. With `COc1ccc(-c2[nH]nc3c2C(=O)c2c(NC(=O)CN4CCC(C(N)=O)CC4)cccc2-3)cc1` the figure was more than 300 °C; with `CCC(=O)Oc1cc(OC)cc(OC)c1C(=O)C=Cc1ccco1`, 93.6 °C. With `O=C(CCl)c1cccn1Cc1ccccc1[N+](=O)[O-]` the figure was 112 to 114 °C; with `CCOC(=O)Cn1c2c([nH]c(=O)c1=O)CCC1=C2C=C(n2ccc(CN3CCN(C(c4ccccc4)c4ccccc4)CC3)c2)CC1`, more than 200 °C; with `CCC(=O)N1CCc2ccccc2C(Oc2ccc(C(F)(F)F)cc2)C1` (centres undefined), 109 to 110 °C. With `CCNC(=O)Nc1nc2cc(-c3cccnc3)cc(-c3ccc(C)cn3)c2s1` the figure was 231 °C; with `N#Cc1ccc(NCCCN2C3CCC2CNC3)cc1`, 44 to 46 °C; with `CCC(NC(=N)NC#N)c1ccccc1` (centres undefined), 121 to 123 °C.

For the compound `NCc1cn(CCC(=O)O)c(=S)n1[C@H]1CCc2c(F)cc(F)cc2C1`, the melting point was 191 °C.

`O=P(Oc1ccccc1)(Oc1ccc(-c2cssc2=S)cc1)Oc1ccc(-c2cssc2=S)cc1`: the melting point fell in the range of 75 to 80 °C. Next, `Cc1ccn2c(C)c(CCc3ccc4nc(N(C)C)oc4c3)nc2c1`: 67 to 69 °C; `Cn1c(=O)ccc2c(-c3ccccc3)nccc21`: 190 to 192 °C; `O=C(Nc1ccc(OCCCN2CCNCC2)c2ccccc12)c1cc(F)cc(N2CCCCC2)c1`: 70 to 72 °C. Regarding `COC(=O)[C@@H]1Cc2cc(OC)c(O)cc2C(=O)N1`, the melting point fell in the range of 280 to 285 °C. Next, `Cc1cc(Cc2ccccc2)nc(Nc2ccc(-n3cnc(C)n3)c(F)c2)n1`: 183 to 185 °C; `O=C(CBr)c1csc(C(F)(F)F)n1`: 36 to 37 °C. With `CCOc1ccc(C(CC(=O)OC)N2C(=O)c3ccc(N)cc3C2=O)cc1OCC` (centres undefined) the figure was 143 to 145 °C. With `O=C1NC(=O)c2ccc(Br)cc2/C1=C/NCc1cccnc1` the figure was 299 to 300 °C; with `CCOC(=O)CN1C(=O)N(c2ccc(C)cc2)C2(CCCCC2)C1=O`, 132 °C; with `COC1C=C(C)C(=O)CC(C)(C)C1OC(=O)c1ccccc1C(=O)O` (centres undefined), 158 °C. `COc1ccc(F)c(NCc2ccccc2)c1` had a melting point of 56 to 58 °C. With `CN1CCN(Cc2cccc(-c3cc4c(Nc5ccc6[nH]ccc6c5)c(C#N)cnc4s3)c2)CC1` the figure was 128 to 130 °C; with `CC1(C)C2CC[C@@]1(C)C(C(=O)N1C(=O)OC(C#CC3CC3)(C(F)(F)F)c3cc(Cl)ccc31)C2` (some centres undefined), 164 to 165 °C. With `Cc1ccc(-c2c3c(cc4ccc5c(c24)OCO5)C(=O)NC3=O)cc1` the figure was 297 to 299 °C; with `Cc1ccc2c(c1)N(CC(=O)c1ccco1)C(=O)C(NC(=O)Nc1cccc(C(=O)O)c1)CN2C(=O)C(C)(C)C` (centres undefined), 202 to 204 °C. Compound `CC(=O)CC(=O)Nc1nc2ccc(NC(C)=O)cc2s1` came in with a melting point of 248 to 250 °C.

For `COc1cc(N)ccc1-c1sc(C)nc1C`, the melting point was in the range of 112 to 115 °C. Next, `CC(C)c1cc(-c2c3ccccc3c(Br)c3sc4ccccc4c23)cc(C(C)C)c1O`: 189 to 190 °C; `COc1cc([N+](=O)[O-])c(N)cc1OC(F)F`: 144 to 145 °C.

Turning to `O=C(N[C@H]1CCN(CCCOc2ccc(F)cc2)C[C@H]1O)c1ccccc1` (relative stereo), the melting point is 130 °C. Next, `CSCC(C)C(=O)N(C)c1sc(-c2cccnc2)nc1Cl` (centres undefined): 70 to 73 °C; `NC(=Nc1ccc(N2CCN(C(=O)NCCCCC3CCSS3)CC2)cc1)c1cccs1` (centres undefined): 201 to 202 °C. With `CC(N)(C(N)=O)C(F)F` (centres undefined) the figure was 77 to 80 °C. Turning to `CCCCCc1c(/C=C/C(=O)OC)sc2cc(OC)ccc12`, the melting point was 49 to 50 °C.

The compound `CC1(C)CC(=O)c2ccc(OCCn3ccnc3)cc2O1` had a melting point of 84 to 86 °C. With `CC(=O)Nc1cc2c(cc1[N+](=O)[O-])OCO2` the figure was 207 to 208 °C; with `NP(N)(=O)NC(=O)c1ccsc1`, 269 to 278 °C; with `CC(C)n1cnc2c(NCc3cccnc3)nc(F)nc21`, 131 to 133 °C. With `O=C(O)c1cn(-c2ccc(SC(F)(F)F)cc2)cn1` the figure was 247 to 248 °C; with `Cc1nc(-c2ccc(C(F)(F)F)cc2)sc1CN(C)c1ccc(OCC(=O)O)c(F)c1`, 113 to 114 °C. `CC(=O)Nc1ccc(C)c2c1C(=O)CCN2CC#N` yielded a melting point of 190 to 193 °C. Next, `O=C(Nc1ccc2c(c1)CC(NS(=O)(=O)c1ccccc1)C2)c1ccccc1-c1ccc(C(F)(F)F)cc1` (centres undefined): 96 °C; `CN(C)CCc1ccc(O)c2[nH]ncc12`: 223 to 227 °C. As to `O=C(CCc1ccc(O)cc1)OCc1ccc([N+](=O)[O-])cc1`, the melting point lay within 80 to 82 °C. Next, `C=C(C)C(=O)OCCOC(=O)C(=O)OCc1ccc(OCc2ccccc2)cc1`: 40 to 42 °C. Next, `COc1cc(C(=O)N2CCN(c3ccc(N)cc3)CC2)cc(OC)c1O`: 182 to 183 °C; `CCC1(c2ccnc(OC)c2CO)OCCCO1`: 79 °C. As for `CN(C)c1nc2c(ccc3ccccc32)s1`, the melting point was 136 to 138 °C. Turning to `Cc1ccc(S(=O)(=O)NCCO)c(C)c1`, the melting point lay in the range of 70 to 72 °C. With `CC(C)(C)OC(=O)N1CCC(CCOc2ccc(C=NO)cc2)CC1` the figure was 114 to 116 °C; with `O=C1C=C(c2ccc[nH]2)C(=O)c2ccccc21`, 155 to 158 °C; with `O=C(O)CC=C(c1ccccc1)c1ccccc1`, 109 to 111 °C. On to `COC(=O)CCC(=O)c1cc(C(=O)N(C)C)cs1`, for which the melting point lay in the range of 98 to 100 °C.

Compound `COC(=O)c1ccc(CC(=O)c2ccc3c(c2)C(C)(C)CCC3(C)C)cc1` registered a melting point of 103 to 104 °C. Compound `O=c1[nH]c2cc(Cl)c(Cl)c([N+](=O)[O-])c2[nH]c1=O` yielded a melting point of 347 to 348 °C. Compound `COc1ccc2c(-c3ccccc3)c(C(=O)c3ccccc3OC)sc2c1` gave a melting point of 111 to 112 °C. `O=C(Nc1ccc(I)cc1)c1ccccc1-c1ccc(C(F)(F)F)cc1` displayed a melting point of 147 °C.

The compound `COC(=O)c1cc(=O)c2cc(SC)ccc2[nH]1` showed a melting point of 264 to 266 °C. In turn, `O=C(Cc1ccccc1)N[C@@H]1C(=O)N[C@@H]1SCC(=O)c1ccccc1` came in with a melting point of 160 to 162 °C. Next, `Fc1ccc2c(C3CCN(CCCOc4ccccc4)CC3)noc2c1`: 78 to 80 °C.

For the compound `CC(C)Cn1nc(-c2ccc(F)cc2F)cc(CN2C(=O)c3ccccc3C2=O)c1=O`, the melting point fell in the range of 152 to 156 °C. With `N#CCCc1cc(N2C(=O)C3=C(CCCC3)C2=O)ccc1Cl` the figure was 87 to 97 °C; with `CC(=O)N1CCc2cc(N)cnc21`, 193 to 195 °C; with `Fc1ccc2c(C3=CCN(CC4COc5ccc6[nH]c(C(F)(F)F)nc6c5O4)CC3)c[nH]c2c1` (centres undefined), 215 to 220 °C. With `CN(C)c1cccc2c1C(=O)N(C1(C(N)=O)CCCCC1)C2=O` the figure was 166 to 169 °C.

`Cc1cccc(C2CCCN2S(=O)(=O)c2ccc(F)cc2)c1` (racemic): the melting point worked out at 80 °C. In the case of `COC(=O)C1CC(C#N)(c2ccccc2Cl)CCC1=O` (centres undefined), the melting point is 113 to 118 °C. With `COc1cnc(CSc2nc3cc(OC(F)(F)C(F)F)ccc3[nH]2)cc1OC` the figure was 125 to 127 °C. Next, `CC1CCC(N2c3ccccc3Oc3c(Cl)cccc32)=N1` (centres undefined): 120 to 122 °C; `Cc1c(NC(=O)CC(C)(C)C)cc2c(c1C)O[C@@H](C)[C@H]2c1ccc(C(C)C)cc1` (relative stereo): 94 to 95 °C; `Cc1cccc(CC(Nc2ccccc2)C(=O)NC(C#N)COCc2cccc(C(=O)O)c2)c1` (centres undefined): 135 to 137 °C. With `O=S(=O)(CCCCl)Nc1cccc(Oc2cccc3cccnc23)c1` the figure was 138 to 140 °C; with `CCOc1cc(-n2c(=O)cc(C(F)(F)F)n(C)c2=O)c(F)cc1Cl`, 118 to 121 °C; with `CCOC(=O)CCc1cn(Cc2cc(OCc3nc(-c4ccccc4)oc3C)no2)nc1OCC`, 82 to 83 °C.

`CCOC(=O)C(C#N)=NOC(=O)OCc1ccccc1` displayed a melting point of 101 to 102 °C.

The compound `Cc1ccc2ccc(N3C(=O)c4cccnc4C3OC(=O)N3CCN(C)CC3)nc2n1` (centres undefined) displayed a melting point of 226 °C. Next, `CC(=O)N1CCc2cc(CC(C)Br)ccc21` (centres undefined): 124 to 126 °C; `C[C@@H]([C@H](O)c1ccc(O)cc1)N1CCC(O)(Cc2ccccc2)CC1` (relative stereo): 173 to 174 °C. With `CC(=O)Nc1nc(CSc2ccc([N+](=O)[O-])cc2)cs1`, the melting point was in the range of 165 to 166 °C. In turn, `Cc1ccc2nc(-c3ccccc3)nc(Cl)c2c1` yielded a melting point of 111 to 113 °C. Next, `Cc1c(-c2ccncc2)sc(-c2ccncc2)c1C(F)F`: 132 to 133 °C.
